# From patent publication US6545032B1, “Synthesis of [3,5,7]-H-imidazo[1,5-a] imidazol-2(3H)-one compounds” (Torrey Pines Institute for Molecular Studies, priority 1999, dated 2003)
# Legend:
# mu opiate receptor = target: T1, mu opiate receptor (Rattus norvegicus, UniProt P33535); assay: Inhibition of [3H]DAMGO binding to the mu opiate receptor in rat brain homogenates; parameters: Mean: unit not given beside the values; conditions: 0.08 mg of compound per milliliter, 7 nM 3H-labeled DAMGO, rat brain membranes; for % Bound: [3H]DAMGO bound; for Mean: mean bound radioactivity of [3H]DAMGO; for Minus NSB*: mean minus non-specific binding; for % Inhibition: percent inhibition of DAMGO binding
# T1 construct: from tissue; host or cells: rat brain membranes/homogenate
# Experimental: The previously prepared [3,5,7]-1H-imidazo[1,5-a]-imidazol-2(3H)-one library of individual compounds was screened for the ability to inhibit the binding of [^3H] [D-Ala^2,MePhe^4,Gly^5-ol]enkephalin (DAMGO) that is known to bind specifically to the mu opiate receptor present in rat brain homogenates following literature procedures. [Dooley et al., Science, 266:2019(1994); U.S. Pat. No. 5,763,193.]
# Preparation of rat brain membranes and the receptor binding assay were carried out as described in Dooley et al., Life Sci., 52:1509(1993). Each tube in the screening assay contained 0.08 mg of compound mixture per milliliter, 0.5 mL of membrane suspension (0.1 mg of protein), 7 nM ^3H-labeled DAMGO [specific activity 36 Ci/mmol, obtained from the National Institute on Drug Abuse (NIDA) repository through Chiron Mimotopes PeptideSystems (San Diego, Calif.) and […] of peptide mixture in 50 mM Tris-HCl buffer (pH 7.4). The final volume was 0.65 mL. The results of these screenings are shown in the table, below, wherein the “R” groups are as discussed for Example 1. The results are reported as percent inhibition of DAMGO binding.
# kappa opiate receptor = target: T2, kappa opiate receptor (Cavia porcellus, UniProt P41144); assay: Inhibition of tritiated U69,593 binding to the kappa opiate receptor in guinea pig brain homogenates; parameters: Mean: unit not given beside the values; conditions: 3 nm tritiated U69,593, guinea pig brain membranes; for % Bound: [3H]U69,593 bound; for % Inhibition: inhibition of [3H]U69,593 binding; for Mean: mean bound radioactivity of [3H]U69,593, 2.5 hours 25° C.; for Minus NSB: mean minus non-specific binding
# T2 construct: guinea pig cortices and cerebella were homogenized in 40 mL of Buffer A; from tissue; host or cells: guinea pig cortices and cerebella, crude membrane suspension
# Experimental: The above-prepared library of individual compounds was screened for the ability to inhibit the binding of tritiated Compound U69,593 that is known to bind specifically to the kappa opiate receptor present in guinea pig brain homogenates following literature procedures. [Dooley et al., J. Biol. Chem., 273(30) 18848-18856 (1998)]
# Briefly, guinea pig cortices and cerebella were homogenized in 40 mL of Buffer A [50 mM Tris-HCl, pH 7.4] at 4° C. Homogenates were centrifuged [Beckman® J2-HC, 35, 300×g] for 10 minutes. The pellets were resuspended in fresh buffer and incubated at 37° C. for 40 minutes. Following incubation, the suspensions were centrifuged as before, the resulting pellets resuspended in 100 volumes of Tris buffer, and the suspensions combined. Membrane suspensions were prepared and used on the same day. Protein content of the crude homogenates was determined by the method of Bradford, Anal. Biochem., 72:248-252 (1976).
# Each assay tube contained 0.5 mL of membrane suspension, 3 nm of tritiated Compound U69,593 [(5a,7a,8b)-(−)-N-methyl-N-(7-(1-pyrrolidinyl)-1-oxaspiro(4,5)dec-8-yl)-benzeneacetamide; Lahti et al., European J. Pharmacol., 109:281-284(199-85)] in a total volume of 0.65 mL. Assay tubes were incubated for 2.5 hours a 25° C. The assay was then filtered through GF-B filters on a Tomec™ harvester (Orange, Conn.). The filters were subsequently washed with 6 mL of 50 mM Tris-HC1, pH 7.4 at 4° C. Bound radioactivity was counted on a Wallace™ Beta-plate Liquid Scintillation Counter (Piscataway, N.J.). Unlabeled U50, 488 [(trans-(dl)-3,4-dichloro-N-methyl-N-[2-(1-pyrrolidinyl)cyclohexyl]-benzeneacetamide) methane sulfonate hydrate; Lahti et al., Life Sci., 31:2257-xx(1982) and Von Voightlander et al., J. Pharmacol. Exp. Ther., 224:7 (1983)] was used as a competitive inhibitor to generate a standard curve and determine nonspecific binding. The results of these assays are shown in the table, below, wherein the “R” groups are as discussed for Example 1.
# T1 sequence (P33535 whole entry): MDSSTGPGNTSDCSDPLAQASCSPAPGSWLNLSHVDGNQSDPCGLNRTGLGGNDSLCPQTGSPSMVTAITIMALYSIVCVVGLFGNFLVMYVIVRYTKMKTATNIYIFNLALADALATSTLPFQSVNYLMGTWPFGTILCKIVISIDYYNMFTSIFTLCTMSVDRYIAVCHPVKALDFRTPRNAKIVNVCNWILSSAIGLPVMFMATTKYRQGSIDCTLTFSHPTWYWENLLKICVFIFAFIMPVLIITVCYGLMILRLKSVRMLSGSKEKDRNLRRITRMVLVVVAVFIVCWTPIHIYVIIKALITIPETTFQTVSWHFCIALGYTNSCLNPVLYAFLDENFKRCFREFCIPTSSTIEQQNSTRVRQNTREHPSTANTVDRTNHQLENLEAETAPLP
# T2 sequence (P41144 whole entry): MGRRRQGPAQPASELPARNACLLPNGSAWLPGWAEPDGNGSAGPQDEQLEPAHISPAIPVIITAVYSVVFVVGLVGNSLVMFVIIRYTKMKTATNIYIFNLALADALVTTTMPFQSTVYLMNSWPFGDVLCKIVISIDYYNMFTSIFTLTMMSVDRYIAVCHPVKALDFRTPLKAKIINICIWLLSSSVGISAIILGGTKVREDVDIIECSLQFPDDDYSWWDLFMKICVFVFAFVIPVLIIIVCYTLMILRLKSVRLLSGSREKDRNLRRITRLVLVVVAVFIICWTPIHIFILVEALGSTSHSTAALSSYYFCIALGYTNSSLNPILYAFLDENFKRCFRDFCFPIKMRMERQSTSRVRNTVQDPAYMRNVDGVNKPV
SMILES,% Bound (mu opiate receptor),Mean (mu opiate receptor),Minus NSB* (mu opiate receptor),% Inhibition (mu opiate receptor),% Bound (kappa opiate receptor),% Inhibition (kappa opiate receptor),Mean (kappa opiate receptor),Minus NSB (kappa opiate receptor)
CC(C)c1nc(CCCc2ccccc2)n2c1NC(=O)C2C(C)C (racemic) [Pool 113],43%,716.3,408.30,57%,61.597%,38.403%,1545.15,638.15
CCC(C)Cc1nc(C(C)C)c2n1C(C(C)C)C(=O)N2 (centres unmarked) [Pool 126],64%,918.7,610.70,36%,73.311%,26.689%,1666.5,759.50
CCCC1C(=O)Nc2c(C(C)C)nc(C)n21 (centres unmarked) [Pool 28],66%,932.9,624.90,34%,67.601%,32.399%,1607.35,700.35
Cc1nc(C)n2c1NC(=O)C2C(C)C (centres unmarked) [Pool 51],62%,902.75,594.75,38%,71.313%,28.687%,1645.8,738.80
CCCCC(CC)c1nc(C(C)C)c2n1C(C(C)C)C(=O)N2 (mixture of isomers) [Pool 128],60%,881.35,573.35,40%,57.563%,42.437%,1503.35,596.35
CCC(C)C1C(=O)Nc2c(C(C)C)nc(C)n21 (centres unmarked) [Pool 5],78%,1052.8,744.80,22%,75.043%,24.957%,1684.45,777.45
CCCCC1C(=O)Nc2c(C(C)C)nc(C)n21 (centres unmarked) [Pool 27],59%,871.25,563.25,41%,79.855%,20.145%,1734.3,827.30
Cc1nc(C)n2c1NC(=O)C2C(C)C (centres unmarked) [Pool 35],47%,753.5,445.50,53%,77.693%,22.307%,1711.9,804.90
Cc1nc(C(C)C)c2n1C(C(C)C)C(=O)N2 (centres unmarked) [Pool 19],75%,1027.75,719.75,25%,84.580%,15.420%,1783.25,876.25
Cc1nc(CC2CCCCC2)c2n1C(C(C)C)C(=O)N2 (centres unmarked) [Pool 46],60%,881.4,573.40,40%,121.815%,−21.815%,2169,1262.00
CCCCC1C(=O)Nc2c(C(C)C)nc(C)n21 (centres unmarked) [Pool 11],47%,756.05,448.05,53%,80.034%,19.966%,1736.15,829.15
Cc1nc(Cc2ccc(O)cc2)c2n1C(C(C)C)C(=O)N2 (centres unmarked) [Pool 48],44%,728.5,420.50,56%,84.653%,15.347%,1784,877.00
CCC(C)C1C(=O)Nc2c(C(C)C)nc(C)n21 (centres unmarked) [Pool 21],55%,833.5,525.50,45%,56.921%,43.079%,1496.7,589.70
Cc1nc(CCCCN)c2n1C(C(C)C)C(=O)N2 (centres unmarked) [Pool 41],58%,858.1,550.10,42%,51.853%,48.147%,1444.2,537.20
Cc1nc(C(C)C)c2n1C(CC(C)C)C(=O)N2 (centres unmarked) [Pool 20],50%,787.6,479.60,50%,68.996%,31.004%,1621.8,714.80
CC(C)c1nc(Cc2ccc(F)cc2)n2c1NC(=O)C2C(C)C (racemic) [Pool 75],47%,758.2,450.20,53%,71.134%,28.866%,1643.95,736.95
CC(C)c1nc(CC2CCCCC2)n2c1NC(=O)C2C(C)C (centres unmarked) [Pool 138],60%,877.8,569.80,40%,70.685%,29.315%,1639.3,732.30
CC(C)c1nc(Cc2ccc(Cl)c(Cl)c2)n2c1NC(=O)C2C(C)C (racemic) [Pool 81],71%,988.3,680.30,29%,89.223%,10.777%,1831.35,924.35
CC(C)c1nc(CC(C)c2ccccc2)n2c1NC(=O)C2C(C)C (mixture of isomers) [Pool 69],62%,900.1,592.10,38%,67.157%,32.843%,1602.75,695.75
Cc1nc(Cc2ccccc2)c2n1C(C(C)C)C(=O)N2 (centres unmarked) [Pool 47],62%,897.8,589.80,38%,104.469%,−4.469%,1989.3,1082.30
CCCc1nc(C)n2c1NC(=O)C2C(C)C (centres unmarked) [Pool 45],62%,902.55,594.55,38%,85.275%,14.725%,1790.45,883.45
Cc1nc(CC(C)C)c2n1C(C(C)C)C(=O)N2 (centres unmarked) [Pool 53],71%,988.95,680.95,29%,106.356%,−6.356%,2008.85,1101.85
